This note sets out measurements from patent US5362739A (priority 1990, dated 1994).

For assay [1], the target named is muscarinic receptors. It counts as binding, rat (Hooded Lister). The note with it: 0.27 nM 3H-QNB, rat cerebral cortex membranes, 37° C., 30 min.
The target of assay [2] is muscarinic receptors. As to the kind of experiment: Radio ligand binding: displacement of the muscarinic agonist 3H-Oxotremorine-M (3H-OXO-M). Also on record: species or system rat (Hooded Lister). The following applies: 2 nM 3H-OXO-M, rat cerebral cortex membranes, 2 mM magnesium chloride, 37° C., 30 min.

Where a name gives a salt, the structure may show the parent alone. Read-outs that look alike come from different tables or passages of the source.

Broadly, the IC50 is the concentration that inhibits the measured activity by half. A higher IC50 goes with lower potency.

On to `CON=C(F)C1=CC2CCN(C1)C2` (racemic) [Compound E3, (±) 1-Azabicyclo[3.2.1]oct-3-en-3-yl-N-methoxcarboximidoyl fluoride oxalate salt], for which the IC50 in assay [1] is 320 nM; in assay [2], 26 nM.
For `CON=CC1=CC2CCN(C1)C2` (mixture of isomers) [Compound E4, (±) syn-1-Azabicyclo[3.2.1]oct-3-en-3-ylcarboxaldehyde-O-methyloxime hydrochloride salt] the same measures were 1250 nM and 70 nM.
Take `CON=C(Cl)C1=CC2CCN(C1)C2` (racemic) [Compound E2, (±) 1-Azabicyclo[3.2.1]oct-3-en-3-yl-N-methoxycarboximidoyl chloride oxalate salt]: the figures for the IC50 in assay [1] and in assay [2] were 1100 nM and 100 nM, respectively.
In the case of `CON=C(C#N)C1=CC2CCN(C1)C2` (racemic) [Compound E6, (±)-α-(Methoxyimino)-α-(1-azabicyclo[3.2.1]oct-3-en-3-yl)acetonitrile oxalate salt], the IC50 came out at 330 nM in assay [1] and 21 nM in assay [2].
Consider `CON=C(C)C1=CC2CCN(C1)C2` (racemic) [Compound E5, (±)trans 3-Acetyl-1-azabicyclo[3.2.1]oct-3-ene-O-methyloxime hydrochloride salt], for which the IC50 in assay [1] was 1450 nM; in assay [2], 175 nM.
